Measurements published in US20230365563A1, “QUINAZOLINE COMPOUND AND APPLICATION THEREOF” (SHANGHAI PHARMACEUTICALS HOLDING CO., LTD., priority 2020, published 2023).
Structures can show the parent of a compound that is named as a salt.

Target: T1, KRAS-G12D and SOS1 (Homo sapiens, UniProt P01116, G12D)
T1 construct: purchased
Experiment: Inhibition of KRAS-G12D/SOS1 binding (Cisbio binding kit, 665/615 ratio), Effect Embodiment A
Details: read-out: GTP-KRAS-G12D:SOS1 IC50
Procedure: Similarly, the first dilution point of the compound to be tested was its storage solution, and the solution was 3-fold diluted, with 11+0 points of dilution. Echo was used to transfer 0.2 μL gradient diluted solution of the compounds into a 384-well plate, with 2 duplicated wells for each compound, and the final concentration of DMSO was 1%. The solution was centrifuged for 1 min at 1000 rpm/min.
IC50 of the compounds was fitted by Graphpad Prism 8 nonlinear regression equation: […]
The IC50 (half inhibitory concentration) of the compound was obtained by using the following nonlinear fitting formula: […]

T1 sequence (P01116 1-188 isoform P01116-2 G12D): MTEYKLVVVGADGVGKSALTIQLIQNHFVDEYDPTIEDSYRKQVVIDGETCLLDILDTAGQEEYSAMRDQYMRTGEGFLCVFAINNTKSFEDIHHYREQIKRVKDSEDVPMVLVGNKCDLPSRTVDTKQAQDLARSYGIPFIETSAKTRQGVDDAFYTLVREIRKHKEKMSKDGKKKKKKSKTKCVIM

Row | Structure (SMILES) | IC50 [µM]
1 | CNCCN(C)c1nc(N2CC(N(C)C)C2)nc2c(F)c(-c3cc(O)cc4ccccc34)c(Cl)cc12 (single isomer, unassigned) [Compound 16a, (R or S)-4-(6-chloro-2-(3-(dimethylamino)azetidin-1-yl)-8-fluoro-4-(methyl(2-(methylamino)ethyl)amino)quinazolin-7-yl)naphthalen-2-ol] | 3.49
2 | CN(C)C1CN(c2nc(N3CC4CCC(C3)N4)c3cc(Cl)c(-c4cc(O)cc5cccc(F)c45)c(F)c3n2)C1 (single isomer, unassigned) [Compound 64a, 4-((S or R)-4-((1R,5S)-3,8-diazabicyclo[3.2.1]octan-3-yl)-6-chloro-2-(3-(dimethylamino)azetidin-1-yl)-8-fluoroquinazolin-7-yl)-5-fluoronaphthalen-2-ol] | 31.7
3 | CN(CCN)c1nc(N2CC(N(C)C)C2)nc2c(F)c(-c3cc(O)cc4ccccc34)c(Cl)cc12 (single isomer, unassigned) [Compound 15b, (S or R)-4-(4((2-aminoethyl) (methyl)-amino)-6-chloro-2-(3-(dimethylamino)azetidin-1-yl)-8-fluoroquinazolin-7-yl)naphthalen-2-ol] | 52.7
4 | Oc1cc(-c2c(Cl)cc3c(N4CC5CCC(C4)N5)nc(OCCCN4CCOCC4)nc3c2F)c2ccccc2c1 (single isomer, unassigned) [Compound 54b, 4-((R or S)-4-((1R,5S)-3,8-diazabicyclo[3.2.1]octan-3-yl)-6-chloro-8-fluoro-2-(3-morpholinopropoxy)quinazolin-7-yl)naphthalen-2-ol dihydrochloride] | 22.1
5 | CN(C)C1CN(c2nc(C3(C(N)=O)CNC3)c3cc(Cl)c(-c4cc(O)cc5ccccc45)c(F)c3n2)C1 (single isomer, unassigned) [Compound 22b, (R or S)-3-(6-chloro-2-(3-(dimethylamino)azetidin-1-yl)-8-fluoro-7-(3-hydroxynaphthalen-1-yl)quinazolin-4-yl)azetidin-3-carboxamide bistrifluoroacetate] | 2.42
6 | CN(C)C1CN(c2nc(NC3CC4CCCC(C3)N4)c3cc(Cl)c(-c4cc(O)cc5ccccc45)c(F)c3n2)C1 (single isomer, unassigned) [Compound 31, 4-((S or R)-4-(((1R,3R,5S)-9-azabicyclo[3.3.1]nonan-3-yl)amino)-6-chloro-2-(3-(dimethylamino)azetidin-1-yl)-8-fluoroquinazolin-7-yl)naphthalen-2-ol] | ~69.7
7 | CN(C)C1CN(c2nc(C3CN(C(=N)N)C3)c3cc(Cl)c(-c4cc(O)cc5ccccc45)c(F)c3n2)C1 (single isomer, unassigned) [Compound 146] | 6.93
8 | CC(C)(CCOc1nc(N2CC3CCC(C2)N3)c2cc(Cl)c(-c3cc(O)cc4ccccc34)c(F)c2n1)N1CCCC1 (single isomer, unassigned) [Compound 123, 4-((S or R)-4-((1R,5S)-3,8-diazabicyclo[3.2.1]octan-3-yl)-6-chloro-8-fluoro-2-(3-methyl-3-(pyrrolidin-1-yl)butoxy)quinazolin-7-yl)naphthalen-2-ol dihydrochloride] | 0.106
9 | CN(C)C1CN(c2nc(N3C[C@@H]4CC[C@H]3CN4)c3cc(Cl)c(-c4cc(O)cc5ccccc45)c(F)c3n2)C1 (single isomer, unassigned) [Compound 4b, (S or R)-4-(4-((1S,4S)-2,5-diazabicyclo [2.2.2]octan-2-yl)-6-chloro-2-(3-(dimethylamino)azetidin-1-yl)-8-fluoro-quinazolin-7-yl)naphthalen-2-ol] | 4.59
10 | CN(C)C1CN(c2nc(N3CC4CNCC4C3)c3cc(Cl)c(-c4cc(O)cc5ccccc45)c(F)c3n2)C1 (single isomer, unassigned) [Compound 14c, (R or S)-4-(6-chloro-2-(3-(dimethylamino)azetidin-1-yl)-8-fluoro-4-((3aR,6aR or 3aS,6aS)-hexahydro-pyrrolo[3,4-c]pyrrol-2(1H)-yl)quinazolin-7-yl)naphthalen-2-ol] | 9.49
11 | CN(C)C1CN(c2nc(N3CC4CCC(C3)N4C(=N)N)c3cc(Cl)c(-c4cc(O)cc5ccccc45)c(F)c3n2)C1 (single isomer, unassigned) [Compound 85, (1R,5S)-3-((S or R)-6-chloro-2-(3-(dimethylamino)azetidin-1-yl)-8-fluoro-7-(3-hydroxynaphthalen-1-yl)quinazolin-4-yl)-3,8-diazabicyclo[3.2.1]octane-8-carboximidamide diformate] | 4.79
12 | CC(=O)NCCN(C)c1nc(N2CC(N(C)C)C2)nc2c(F)c(-c3cc(O)cc4ccccc34)c(Cl)cc12 (single isomer, unassigned) [Compound 84, (S or R)—N-(2-((6-chloro-2-(3-(dimethylamino)azetidin-1-yl)-8-fluoro-7-(3-hydroxynaphthalen-1-yl)quinazolin-4-yl)(methyl)amino)ethyl)acetamide] | 3.05
13 | CC(=N)N1C2CCC1CN(c1nc(N3CC(N(C)C)C3)nc3c(F)c(-c4cc(O)cc5ccccc45)c(Cl)cc13)C2 (single isomer, unassigned) [Compound 87, 4-((S or R)-6-chloro-2-(3-(dimethylamino)azetidin-1-yl)-8-fluoro-4-((1R,5S)-8-(1-iminoethyl)-3,8-diazabicyclo[3.2.1]octan-3-yl)quinazolin-7-yl)naphthalen-2-ol trifluoroacetate] | 23.3
14 | CN(C)C1CN(c2nc(N=S3(=O)CCC(N)CC3)c3cc(Cl)c(-c4cc(O)cc5ccccc45)c(F)c3n2)C1 (single isomer, unassigned) [Compound 72d, (4S or R)-4-amino-1-(((S or R)-6-chloro-2-(3-(dimethylamino)azetidin-1-yl)-8-fluoro-7-(3-hydroxynaphthalen-1-yl)quinazolin-4-yl)imino)hexahydro-1-thiopyran 1-oxide] | 176

Further molecules by falling IC50, results first:

Row | IC50 [µM] | Structure (SMILES)
15 | 2.29 | CCN(CC)CCCOc1nc(N2CC3CCC(C2)N3)c2cc(Cl)c(-c3cc(O)cc4ccccc34)c(F)c2n1 (single isomer, unassigned) [Compound 53b, 4-((R or S)-4-((1R,5,S)-3,8-diazabicyclo[3.2.1]octan-3-yl)-6-chloro-2-(3-(diethylamino)propoxy)-8-fluoroquinazolin-7-yl)naphthalen-2-ol]
16 | 2.24 | CN(C)C1CN(c2nc(N3C[C@H]4CNC[C@H]4C3)c3cc(Cl)c(-c4cc(O)cc5ccccc45)c(F)c3n2)C1 (single isomer, unassigned) [Compound 13a, (R or S)-4-(6-chloro-2-(3-(dimethylamino)azetidin-1-yl)-8-fluoro-4-((3aR,6aS)-hexahydro-pyrrolo[3,4-c]pyrrol-2 (1H)-yl)quinazolin-7-yl)naphthalen-2-ol]
17 | 1.63 | CCc1c(F)ccc2cc(O)cc(-c3c(F)cc4c(N5CC6CCC(C5)N6)nc(OCCCN5C[C@@H](C)O[C@@H](C)C5)nc4c3F)c12 (single isomer, unassigned) [Compound 250b, (R or S)-4-(4-((1R,5S)-3,8-diazacyclo[3.2.1]octan-3-yl)-2-(3-((2R,6S)-2,6-dimethylmorpholinyl)propoxy)-6,8-difluoroquinazolin-7-yl)-5-ethyl-6-fluoronaphthalen-2-ol formate]
18 | 1.53 | CN(C)C1CN(c2nc(N3CCC4(CC3)CNC4)c3cc(Cl)c(-c4cc(O)cc5ccccc45)c(F)c3n2)C1 (single isomer, unassigned) [Compound 11a, (R or S)-4-(6-chloro-2-(3-(dimethylamino)azetidin-1-yl)-8-fluoro-4-(2,7-diazaspiro[3.5]nonan-7-yl)quinazolin-7-yl)naphthalen-2-ol]
19 | 1.35 | CN(CCN)c1nc(N2CC(N(C)C)C2)nc2c(F)c(-c3cc(O)cc4ccccc34)c(Cl)cc12 (single isomer, unassigned) [Compound 15a, (R or S)-4-(4((2-aminoethyl) (methyl)-amino)-6-chloro-2-(3-(dimethylamino)azetidin-1-yl)-8-fluoroquinazolin-7-yl)naphthalen-2-ol]
20 | 0.514 | N=[S+]1([O-])CC2CCC(C1)N2CCCOc1nc(N2CC3CCC(C2)N3)c2cc(Cl)c(-c3cc(O)cc4ccccc34)c(F)c2n1 (single isomer, unassigned) [Compound 213a, (1R,3S or 3R,5S)-8-(3-((4-((1R,5S)-3,8-diazabicyclo[3.2.1]octan-3-yl)-6-chloro-8-fluoro-7-(3-hydroxynaphthalen-1-yl)quinazolin-2-yl)oxy)propyl)-3-imino-3λ^6-thia-8-azabicyclo[3.2.1]octane 3-oxide formate]
21 | 0.449 | CCc1cccc2cccc(-c3c(F)cc4c(N5CC6CCC(C5)N6)nc(OC[C@@]56CCCN5C[C@H](F)C6)nc4c3F)c12 (single isomer, unassigned) [Compound 281b, (R or S)-4-((1R,5S)-3,8-diazacyclo[3.2.1]octan-3-yl)-7-(8-ethylnaphthalen-1-yl)-6,8-difluoro-2-((2R,7aS)-2-fluorotetrahydro-1H-pyrrolin-7a(5H)-yl)methoxy)quinazoline dihydrochloride]
22 | 0.219 | CN1CCOC[C@H]1COc1nc(N2CC3CCC(C2)N3)c2cc(Cl)c(-c3cc(O)cc4ccccc34)c(F)c2n1 (single isomer, unassigned) [Compound 122, 4-((S or R)-4-((1R,5S)-3,8-diazabicyclo[3.2.1]octan-3-yl)-6-chloro-8-fluoro-2-((S)-4-methylmorpholin-3-yl)methoxy)quinazolin-7-yl)naphthalen-2-ol dihydrochloride]
23 | 0.0876 | CN1C[C@H]2C[C@H]2[C@H]1COc1nc(N2CC3CCC(C2)N3)c2cnc(-c3cc(O)cc4ccccc34)c(F)c2n1 [Compound 141, 4-(4-((1R,5S)-3,8-diazabicyclo[3.2.1]octan-3-yl)-8-fluoro-2-((1R,2S,5R)-3-methyl-3-azabicyclo[3.1.0]hexan-2-yl)methoxy)pyridin[4,3-d]pyrimidin-7-yl)naphthalen-2-ol dihydrochloride]
